Assays:
Format in all cases: in vivo
Setaria faberi (SETFA) [1] = test: Pre-emergence herbicidal test; details: 1000 g/ha, evaluated after 13 days
Setaria faberi (SETFA) [2] = test: Post-emergence herbicidal test; details: 1000 g/ha unless otherwise stated, evaluated after 13 days
Method: (§1) Seeds of a variety of test species are sown in standard soil in pots (Amaranthus retoflexus (AMARE), Solanum nigrum (SOLNI), Setaria faberi (SETFA), Lolium perenne (LOLPE), Echinochloa crus-galli (ECHCG), Ipomoea hederacea (IPOHE), Abutilon theophrasti (ABUTH), Zea mays (ZEAMX)). After 8 days cultivation under controlled conditions in a glasshouse (at 24° C./16° C., day/night; 14 hours light; 65% humidity), the plants are sprayed with an aqueous spray solution derived from the formulation of the technical active ingredient in acetone/water (50:50) solution containing 0.5% Tween 20 (polyoxyethelyene sorbitan monolaurate, CAS RN 9005-64-5). Compounds are applied at 1000 g/ha unless otherwise stated. The test plants are then grown in a glasshouse under controlled conditions in a glasshouse (at 24° C./16° C., day/night; 14 hours light; 65% humidity) and watered twice daily. After 13 days the test is evaluated for the percentage damage caused to the plant. The biological activities are shown in the following table on a five-point scale (5=81-100%; 4=61-80%; 3=41-60%; 2=21-40%; 1=10-20%; 0=0%;−=not tested).

[3] = tested on: Abutilon theophrasti (ABUTH); test: Post-emergence herbicidal test; details: 1000 g/ha unless otherwise stated, evaluated after 13 days
Method: as §1

[4] = tested on: Amaranthus retoflexus (AMARE); test: Post-emergence herbicidal test; details: 1000 g/ha unless otherwise stated, evaluated after 13 days
Method: as §1

Zea mays (ZEAMX) [5] = test: Post-emergence herbicidal test; details: 1000 g/ha unless otherwise stated, evaluated after 13 days
Method: as §1

[6] = tested on: Echinochloa crus-galli (ECHCG); test: Post-emergence herbicidal test; details: 1000 g/ha unless otherwise stated, evaluated after 13 days
Method: as §1

[7] = tested on: Ipomoea hederacea (IPOHE); test: Post-emergence herbicidal test; details: 1000 g/ha unless otherwise stated, evaluated after 13 days
Method: as §1

Zea mays (ZEAMX) [8] = test: Pre-emergence herbicidal test; details: 1000 g/ha, evaluated after 13 days
[9] = tested on: Echinochloa crus-galli (ECHCG); test: Pre-emergence herbicidal test; details: 1000 g/ha, evaluated after 13 days
[10] = tested on: Ipomoea hederacea (IPOHE); test: Pre-emergence herbicidal test; details: 1000 g/ha, evaluated after 13 days
[11] = tested on: Amaranthus retoflexus (AMARE); test: Pre-emergence herbicidal test; details: 1000 g/ha, evaluated after 13 days
[12] = tested on: Abutilon theophrasti (ABUTH); test: Pre-emergence herbicidal test; details: 1000 g/ha, evaluated after 13 days

SMILES | percentage damage caused to the plant, five-point scale, SETFA (Setaria faberi (SETFA) [1]) | percentage damage caused to the plant, SETFA (five-point scale) (Setaria faberi (SETFA) [2]) | percentage damage caused to the plant, ABUTH (five-point scale) [3] | percentage damage caused to the plant, AMARE (five-point scale) [4] | percentage damage caused to the plant, ZEAMX (five-point scale) (Zea mays (ZEAMX) [5]) | percentage damage caused to the plant, ECHCG (five-point scale) [6] | percentage damage caused to the plant, IPOHE (five-point scale) [7] | percentage damage caused to the plant, five-point scale, ZEAMX (Zea mays (ZEAMX) [8]) | percentage damage caused to the plant, five-point scale, ECHCG [9] | percentage damage caused to the plant, five-point scale, IPOHE [10] | percentage damage caused to the plant, five-point scale, AMARE [11] | percentage damage caused to the plant, five-point scale, ABUTH [12]
CS(=O)(=O)c1cccc2c1c(=O)c(C(=O)OCC(F)F)nn2-c1ccc(OC(F)(F)F)cc1 [Compound P67, 2,2-difluoroethyl 5-methylsulfonyl-4-oxo-1-[4-(trifluoromethoxy)phenyl]cinnoline-3-carboxylate] | 5 (5=81-100%) | 4 (4=61-80%) | 1 (1=10-20%) | 1 (1=10-20%) | 1 (1=10-20%) | 3 (3=41-60%) | 1 (1=10-20%) | 2 (2=21-40%) | 4 (4=61-80%) | 0 (0=0%) | 0 (0=0%) | 0 (0=0%)
CS(=O)(=O)c1cccc2c1c(=O)c(C(=O)OCCCCOCc1ccccc1)nn2-c1ccc(OC(F)(F)F)cc1 [Compound P89, 4-benzyloxybutyl 5-methylsulfonyl-4-oxo-1-[4-(trifluoromethoxy)phenyl]cinnoline-3-carboxylate] | 4 (4=61-80%) | 4 (4=61-80%) | 0 (0=0%) | 0 (0=0%) | 0 (0=0%) | 3 (3=41-60%) | 0 (0=0%) | 0 (0=0%) | 4 (4=61-80%) | 0 (0=0%) | 0 (0=0%) | 0 (0=0%)
Cc1cc(S(C)(=O)=O)c2c(=O)c(C(=O)O)nn(-c3ccc(OC(F)(F)F)cc3)c2c1 [Compound P7, 7-methyl-5-methylsulfonyl-4-oxo-1-[4-(trifluoromethoxy)phenyl]cinnoline-3-carboxylic acid] | 4 (4=61-80%) | 4 (4=61-80%) | 1 (1=10-20%) | 1 (1=10-20%) | 2 (2=21-40%) | 4 (4=61-80%) | 2 (2=21-40%) | 1 (1=10-20%) | 4 (4=61-80%) | 1 (1=10-20%) | 1 (1=10-20%) | 1 (1=10-20%)
C=C(Cl)COC(=O)c1nn(-c2ccc(OC(F)(F)F)cc2)c2cccc(S(C)(=O)=O)c2c1=O [Compound P66, 2-chloroallyl 5-methylsulfonyl-4-oxo-1-[4-(trifluoromethoxy)phenyl]cinnoline-3-carboxylate] | 5 (5=81-100%) | 4 (4=61-80%) | 1 (1=10-20%) | 0 (0=0%) | 1 (1=10-20%) | 4 (4=61-80%) | 0 (0=0%) | 1 (1=10-20%) | 4 (4=61-80%) | 1 (1=10-20%) | 0 (0=0%) | 0 (0=0%)
CS(=O)(=O)c1cccc2c1c(=O)c(C(=O)OCCCc1ccccc1)nn2-c1ccc(OC(F)(F)F)cc1 [Compound P84, 3-phenylpropyl 5-methylsulfonyl-4-oxo-1-[4-(trifluoromethoxy)phenyl]cinnoline-3-carboxylate] | 4 (4=61-80%) | 4 (4=61-80%) | 1 (1=10-20%) | 0 (0=0%) | 0 (0=0%) | 2 (2=21-40%) | 1 (1=10-20%) | 0 (0=0%) | 3 (3=41-60%) | 0 (0=0%) | 0 (0=0%) | 0 (0=0%)
C#CCOC(=O)c1nn(-c2ccc(OC(F)(F)F)cc2)c2cccc(S(C)(=O)=O)c2c1=O [Compound P79, prop-2-ynyl 5-methylsulfonyl-4-oxo-1-[4-(trifluoromethoxy)phenyl]cinnoline-3-carboxylate] | 5 (5=81-100%) | 4 (4=61-80%) | 1 (1=10-20%) | 0 (0=0%) | 1 (1=10-20%) | 4 (4=61-80%) | 1 (1=10-20%) | 1 (1=10-20%) | 5 (5=81-100%) | 1 (1=10-20%) | 0 (0=0%) | 0 (0=0%)
CCOC(=O)c1nn(-c2ccc(Cl)cc2F)c2cccc(S(C)(=O)=O)c2c1=O [Compound P42, ethyl 1-(4-chloro-2-fluoro-phenyl)-5-methylsulfonyl-4-oxo-cinnoline-3-carboxylate] | 4 (4=61-80%) | 4 (4=61-80%) | 1 (1=10-20%) | 1 (1=10-20%) | 1 (1=10-20%) | 4 (4=61-80%) | 1 (1=10-20%) | 0 (0=0%) | 3 (3=41-60%) | 1 (1=10-20%) | 0 (0=0%) | 1 (1=10-20%)
COC(=O)COC(=O)c1nn(-c2ccc(OC(F)(F)F)cc2)c2cccc(S(C)(=O)=O)c2c1=O [Compound P81, (2-methoxy-2-oxo-ethyl) 5-methylsulfonyl-4-oxo-1-[4-(trifluoromethoxy)phenyl]cinnoline-3-carboxylate] | 5 (5=81-100%) | 4 (4=61-80%) | 1 (1=10-20%) | 1 (1=10-20%) | 1 (1=10-20%) | 3 (3=41-60%) | 0 (0=0%) | 0 (0=0%) | 4 (4=61-80%) | 0 (0=0%) | 0 (0=0%) | 0 (0=0%)
CC(OC(=O)c1nn(-c2ccc(OC(F)(F)F)cc2)c2cccc(S(C)(=O)=O)c2c1=O)C1CC1 (stereo not drawn) [Compound P74, 1-cyclopropylethyl 5-methylsulfonyl-4-oxo-1-[4-(trifluoromethoxy)phenyl]cinnoline-3-carboxylate] | 5 (5=81-100%) | 4 (4=61-80%) | 1 (1=10-20%) | 1 (1=10-20%) | 1 (1=10-20%) | 4 (4=61-80%) | 0 (0=0%) | 0 (0=0%) | 4 (4=61-80%) | 0 (0=0%) | 0 (0=0%) | 0 (0=0%)

— patent publication US20230250066A1, “HERBICIDAL CINNOLINE DERIVATIVES” (SYNGENTA CROP PROTECTION AG, priority 2020, published 2023)
